Data reported in PubChem BioAssay (NCI).
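Compound exposure: 48 hours, 5 concentrations, 96-well plates. GI50 marks 50% less growth. TGI is the concentration that stops growth completely.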

Assays:
Assay in all cases: DTP human tumour cell line panel, 48 h
786-0 renal = system: 786-0 renal
A498 renal = system: A498 renal
A549 NSCLC = system: A549 NSCLC
ACHN renal = system: ACHN renal
BT-549 breast = system: BT-549 breast
CAKI-1 renal = system: CAKI-1 renal
CCRF-CEM leukemia = system: CCRF-CEM leukemia
COLO 205 colon = system: COLO 205 colon
DU-145 prostate = system: DU-145 prostate
EKVX NSCLC = system: EKVX NSCLC
HCC-2998 colon = system: HCC-2998 colon
HCT-116 colon = system: HCT-116 colon
HCT-15 colon = system: HCT-15 colon
HL-60(TB) leukemia = system: HL-60(TB) leukemia
HOP-62 NSCLC = system: HOP-62 NSCLC
HOP-92 NSCLC = system: HOP-92 NSCLC
HS 578T breast = system: HS 578T breast
HT29 colon = system: HT29 colon
IGROV1 ovarian = system: IGROV1 ovarian
K-562 leukemia = system: K-562 leukemia
KM12 colon = system: KM12 colon
LOX IMVI melanoma = system: LOX IMVI melanoma
M14 melanoma = system: M14 melanoma
MALME-3M melanoma = system: MALME-3M melanoma
MCF7 breast = system: MCF7 breast
MDA-MB-231 breast = system: MDA-MB-231 breast
MDA-MB-435 = system: MDA-MB-435
MDA-MB-468 breast = system: MDA-MB-468 breast
MOLT-4 leukemia = system: MOLT-4 leukemia
NCI-H226 lung = system: NCI-H226 lung
NCI-H23 lung = system: NCI-H23 lung
NCI-H460 lung = system: NCI-H460 lung
NCI-H522 lung = system: NCI-H522 lung
NCI/ADR-RES ovarian = system: NCI/ADR-RES ovarian
OVCAR-3 ovarian = system: OVCAR-3 ovarian
OVCAR-4 ovarian = system: OVCAR-4 ovarian
OVCAR-5 ovarian = system: OVCAR-5 ovarian
OVCAR-8 ovarian = system: OVCAR-8 ovarian
PC-3 prostate = system: PC-3 prostate
RPMI-8226 leukemia = system: RPMI-8226 leukemia
RXF 393 renal = system: RXF 393 renal
SF-268 CNS = system: SF-268 CNS
SF-295 CNS = system: SF-295 CNS
SF-539 CNS = system: SF-539 CNS
SK-MEL-2 melanoma = system: SK-MEL-2 melanoma
SK-MEL-28 melanoma = system: SK-MEL-28 melanoma
SK-MEL-5 melanoma = system: SK-MEL-5 melanoma
SK-OV-3 ovarian = system: SK-OV-3 ovarian
SN12C renal = system: SN12C renal
SNB-19 CNS = system: SNB-19 CNS
SNB-75 CNS = system: SNB-75 CNS
SW-620 colon = system: SW-620 colon
T-47D breast = system: T-47D breast
TK-10 renal = system: TK-10 renal
U251 CNS = system: U251 CNS
UACC-257 melanoma = system: UACC-257 melanoma
UACC-62 melanoma = system: UACC-62 melanoma
UO-31 renal = system: UO-31 renal

Question: Which GI50 (786-0 renal) does the source give for `C=C1CC[C@@H]2[C@]3(C)COC(c4ccco4)O[C@@H]3CC[C@@]2(C)[C@@H]1C/C=C1/C(=O)OCC1OC(C)=O` (stereo partly specified) here?
Answer: 18 µM

Question: And the TGI (786-0 renal)?
Answer: 32.8 µM

Question: And the GI50 (A498 renal)?
Answer: > 100 µM

Question: What about the TGI (A498 renal) of the same compound?
Answer: > 100 µM

Question: What about the GI50 (A549 NSCLC) of the same compound?
Answer: 28.2 µM

Question: And the TGI (A549 NSCLC)?
Answer: > 100 µM

Question: And the GI50 (ACHN renal)?
Answer: 14.9 µM

Question: And the TGI (ACHN renal)?
Answer: 28.8 µM

Question: What about the GI50 (BT-549 breast) of the same compound?
Answer: 15 µM

Question: What about the TGI (BT-549 breast) of the same compound?
Answer: 29.1 µM

Question: And the GI50 (CAKI-1 renal)?
Answer: 15.8 µM

Question: And the TGI (CAKI-1 renal)?
Answer: 32.2 µM

Question: What about the GI50 (CCRF-CEM leukemia) of the same compound?
Answer: 2.56 µM

Question: And the TGI (CCRF-CEM leukemia)?
Answer: 9.9 µM

Question: And the GI50 (COLO 205 colon)?
Answer: 16 µM

Question: What about the TGI (COLO 205 colon) of the same compound?
Answer: 31.3 µM

Question: And the GI50 (DU-145 prostate)?
Answer: 15.2 µM

Question: What about the TGI (DU-145 prostate) of the same compound?
Answer: 29.5 µM

Question: And the GI50 (EKVX NSCLC)?
Answer: 14.5 µM

Question: And the TGI (EKVX NSCLC)?
Answer: 31.4 µM

Question: And the GI50 (HCC-2998 colon)?
Answer: 16.8 µM

Question: And the TGI (HCC-2998 colon)?
Answer: 31.4 µM

Question: What about the GI50 (HCT-116 colon) of the same compound?
Answer: 10.8 µM

Question: And the TGI (HCT-116 colon)?
Answer: 26 µM

Question: And the GI50 (HCT-15 colon)?
Answer: 15.6 µM

Question: And the TGI (HCT-15 colon)?
Answer: 38.4 µM

Question: What about the GI50 (HL-60(TB) leukemia) of the same compound?
Answer: 9.35 µM

Question: And the TGI (HL-60(TB) leukemia)?
Answer: 85.6 µM

Question: And the GI50 (HOP-62 NSCLC)?
Answer: 21.8 µM

Question: And the TGI (HOP-62 NSCLC)?
Answer: 55.7 µM

Question: And the GI50 (HOP-92 NSCLC)?
Answer: 12.3 µM

Question: What about the TGI (HOP-92 NSCLC) of the same compound?
Answer: 45.2 µM

Question: What about the GI50 (HS 578T breast) of the same compound?
Answer: 26.1 µM

Question: And the TGI (HS 578T breast)?
Answer: > 100 µM

Question: What about the GI50 (HT29 colon) of the same compound?
Answer: 13.8 µM

Question: What about the TGI (HT29 colon) of the same compound?
Answer: 30.7 µM

Question: What about the GI50 (IGROV1 ovarian) of the same compound?
Answer: 16.5 µM

Question: And the TGI (IGROV1 ovarian)?
Answer: 34.2 µM

Question: And the GI50 (K-562 leukemia)?
Answer: 5.84 µM

Question: And the TGI (K-562 leukemia)?
Answer: > 100 µM

Question: What about the GI50 (KM12 colon) of the same compound?
Answer: 21.7 µM

Question: And the TGI (KM12 colon)?
Answer: 68.7 µM

Question: What about the GI50 (LOX IMVI melanoma) of the same compound?
Answer: 11.8 µM

Question: And the TGI (LOX IMVI melanoma)?
Answer: 24.1 µM

Question: What about the GI50 (M14 melanoma) of the same compound?
Answer: 16.3 µM

Question: And the TGI (M14 melanoma)?
Answer: 34.2 µM

Question: And the GI50 (MALME-3M melanoma)?
Answer: 14.7 µM

Question: And the TGI (MALME-3M melanoma)?
Answer: 29.3 µM

Question: What about the GI50 (MCF7 breast) of the same compound?
Answer: 12.4 µM

Question: What about the TGI (MCF7 breast) of the same compound?
Answer: 32.4 µM

Question: And the GI50 (MDA-MB-231 breast)?
Answer: 15 µM

Question: What about the TGI (MDA-MB-231 breast) of the same compound?
Answer: 30.9 µM

Question: What about the GI50 (MDA-MB-435) of the same compound?
Answer: 15.6 µM

Question: What about the TGI (MDA-MB-435) of the same compound?
Answer: 37 µM

Question: And the GI50 (MDA-MB-468 breast)?
Answer: 13.4 µM

Question: And the TGI (MDA-MB-468 breast)?
Answer: 26.6 µM

Question: What about the GI50 (MOLT-4 leukemia) of the same compound?
Answer: 19.6 µM

Question: And the TGI (MOLT-4 leukemia)?
Answer: > 100 µM

Question: What about the GI50 (NCI-H226 lung) of the same compound?
Answer: 16.6 µM

Question: And the TGI (NCI-H226 lung)?
Answer: 35.1 µM

Question: And the GI50 (NCI-H23 lung)?
Answer: 17.6 µM

Question: And the TGI (NCI-H23 lung)?
Answer: 35.2 µM

Question: What about the GI50 (NCI-H460 lung) of the same compound?
Answer: 18.2 µM

Question: And the TGI (NCI-H460 lung)?
Answer: 38.6 µM

Question: And the GI50 (NCI-H522 lung)?
Answer: 13.6 µM

Question: What about the TGI (NCI-H522 lung) of the same compound?
Answer: 26.7 µM

Question: What about the GI50 (NCI/ADR-RES ovarian) of the same compound?
Answer: 17 µM

Question: And the TGI (NCI/ADR-RES ovarian)?
Answer: 38 µM

Question: And the GI50 (OVCAR-3 ovarian)?
Answer: 10.8 µM

Question: And the TGI (OVCAR-3 ovarian)?
Answer: 26.6 µM

Question: And the GI50 (OVCAR-4 ovarian)?
Answer: 13.5 µM

Question: And the TGI (OVCAR-4 ovarian)?
Answer: 38.4 µM

Question: And the GI50 (OVCAR-5 ovarian)?
Answer: 17.6 µM

Question: And the TGI (OVCAR-5 ovarian)?
Answer: 31.9 µM

Question: What about the GI50 (OVCAR-8 ovarian) of the same compound?
Answer: 12.8 µM

Question: What about the TGI (OVCAR-8 ovarian) of the same compound?
Answer: 28.7 µM

Question: And the GI50 (PC-3 prostate)?
Answer: 13.2 µM

Question: What about the TGI (PC-3 prostate) of the same compound?
Answer: 39.6 µM

Question: What about the GI50 (RPMI-8226 leukemia) of the same compound?
Answer: 3.11 µM

Question: And the TGI (RPMI-8226 leukemia)?
Answer: 38.1 µM

Question: What about the GI50 (RXF 393 renal) of the same compound?
Answer: 11.1 µM

Question: And the TGI (RXF 393 renal)?
Answer: 24.9 µM

Question: And the GI50 (SF-268 CNS)?
Answer: 27.9 µM

Question: What about the TGI (SF-268 CNS) of the same compound?
Answer: > 100 µM

Question: What about the GI50 (SF-295 CNS) of the same compound?
Answer: 25.9 µM

Question: What about the TGI (SF-295 CNS) of the same compound?
Answer: > 100 µM

Question: What about the GI50 (SF-539 CNS) of the same compound?
Answer: 14 µM

Question: What about the TGI (SF-539 CNS) of the same compound?
Answer: 27 µM

Question: What about the GI50 (SK-MEL-2 melanoma) of the same compound?
Answer: 14.6 µM

Question: What about the TGI (SK-MEL-2 melanoma) of the same compound?
Answer: 29 µM

Question: And the GI50 (SK-MEL-28 melanoma)?
Answer: 15.7 µM

Question: And the TGI (SK-MEL-28 melanoma)?
Answer: 29.7 µM

Question: And the GI50 (SK-MEL-5 melanoma)?
Answer: 15.8 µM

Question: And the TGI (SK-MEL-5 melanoma)?
Answer: 31.3 µM

Question: What about the GI50 (SK-OV-3 ovarian) of the same compound?
Answer: 57.7 µM

Question: What about the TGI (SK-OV-3 ovarian) of the same compound?
Answer: > 100 µM

Question: What about the GI50 (SN12C renal) of the same compound?
Answer: 14.4 µM

Question: What about the TGI (SN12C renal) of the same compound?
Answer: 30.6 µM

Question: And the GI50 (SNB-19 CNS)?
Answer: 25.3 µM

Question: What about the TGI (SNB-19 CNS) of the same compound?
Answer: 84.2 µM

Question: And the GI50 (SNB-75 CNS)?
Answer: 5.83 µM

Question: What about the TGI (SNB-75 CNS) of the same compound?
Answer: 49.6 µM

Question: What about the GI50 (SW-620 colon) of the same compound?
Answer: 9.77 µM

Question: And the TGI (SW-620 colon)?
Answer: 23.8 µM

Question: What about the GI50 (T-47D breast) of the same compound?
Answer: 18.6 µM

Question: What about the TGI (T-47D breast) of the same compound?
Answer: 55.1 µM

Question: And the GI50 (TK-10 renal)?
Answer: 25.9 µM

Question: What about the TGI (TK-10 renal) of the same compound?
Answer: 62.4 µM

Question: And the GI50 (U251 CNS)?
Answer: 15.2 µM

Question: And the TGI (U251 CNS)?
Answer: 28.6 µM

Question: And the GI50 (UACC-257 melanoma)?
Answer: 15.5 µM

Question: And the TGI (UACC-257 melanoma)?
Answer: 32.8 µM

Question: And the GI50 (UACC-62 melanoma)?
Answer: 13.6 µM

Question: And the TGI (UACC-62 melanoma)?
Answer: 28.8 µM

Question: What about the GI50 (UO-31 renal) of the same compound?
Answer: 13.2 µM

Question: And the TGI (UO-31 renal)?
Answer: 26 µM
